The molecules below were run on yeast-like fungi (C. glabrata) (assay: Flow cytometry of urine specimen spiked with yeast-like fungi: fluorescence stainability of the fungi). Conditions: average fluorescence signal of yeast-like fungi in human urine without erythrocytes; substance at 1.0 wt % in diluting liquid in place of 2-phenoxyethanol; relative values on scale 0-255.
Type: cell-based
Description: A staining liquid was used which was obtained by dissolving a fluorescent dye represented by the following formula in ethylene glycol so that the final concentration in the sample for analysis would be 6 ppm.
In the step S1, the sample preparing section 200 is controlled to execute the preparation of a sample for analysis. The operation of the sample preparing section 200 in the step S1 will be described with reference to FIG. 5. First, the dispensing device 224 sucks 522 μL of a diluting liquid from the sample container 231 of the reagent setting section 222, and then sucks 180 µL of a specimen (human urine) from the specimen container 225 that is set in the specimen setting section 221. The dispensing device 224 then dispenses the sucked diluting liquid and specimen to the reaction vessel 226 that is set in the incubator 223. Next, the dispensing device 224 sucks 18 μL of a staining liquid from the reagent container 227 of the reagent setting section 222, and dispenses the staining liquid to the reaction vessel 226. Thereafter, the incubator 223 stirs the mixture for 10 seconds to stain the diluted specimen while keeping the liquid temperature within the reaction vessel 226 containing the specimen, diluting liquid, and staining liquid to be 35 °C. The sample liquid for analysis thus prepared is sucked by the dispensing device 224, and is supplied to the sample container 233. The sample liquid for analysis supplied to the sample container 233 is let to flow through the flow cell 301 of the detecting section 300.
In the step S2, the detecting section 300 is controlled to detect signals reflecting the characteristics of each particle from the particles in the sample liquid for analysis. The operation of the detecting section 300 in the step S2 will be described with reference to FIG. 6. When the sample liquid is supplied to the sample container 233 as described above, the sample liquid is guided to the nozzle 303 by the operation of pumps and valves (not illustrated). Then, the sample liquid is ejected from the nozzle 303 to the flow cell 301. Simultaneously with this, a sheath liquid is supplied to the flow cell 301 from a sheath liquid container (not illustrated) via a sheath liquid inlet 304. By this, the sample liquid is surrounded by the sheath liquid in the flow cell 301, and is further narrowed down at by the orifice section 302 to flow. By narrowing the flow of the sample liquid, the particles such as erythrocytes and bacteria contained in the sample liquid are arranged in one line to flow through the orifice section 302. A laser beam emitted from the laser light source 306 is condensed by the condenser lens 307 and is radiated to the sample liquid that is flowing through the orifice section 302. The forward scattered light emitted from a particle in the sample liquid irradiated with the laser beam is condensed by the collector lens 309. Then the forward scattered light that has passed through the pinhole 310 is received and subjected to photoelectric conversion by the photodiode 308 to become a pulse-like forward scattered light signal. The fluorescence emitted from the particle in the sample liquid irradiated with the laser beam is condensed by the collector lens 312. Then the fluorescence that has passed through the filter 313 and the pinhole 314 is received and subjected to photoelectric conversion by the photomultiplier tube 311 to become a pulse-like fluorescence signal. The forward scattered light signal and the fluorescence signal are amplified respectively by the amplifiers 315, 316 and are sent to the controlling section 400.
First, the forward scattered light signal and the fluorescence signal detected by the detecting section are input into the signal processing circuit 403.

SMILES | Fluorescence intensity
OCc1ccccc1 [Benzyl alcohol] | 73
CC(=O)Oc1ccccc1 [Phenyl acetate] | 82
Oc1ccccc1 [Phenol] | 55
CC(O)COc1ccccc1 (stereo not shown) [1-phenoxy-2-propanol] | 103
OCCc1ccccc1 [β-phenethyl alcohol] | 84
c1ccc2scnc2c1 [Benzothiazole] | 92

Same assay, conditions: human urine with erythrocytes plus C. glabrata; diluting liquid with 2-phenoxyethanol 7.5 g/l, pH 7.0 (Example 1) versus without (Example 2)

SMILES | Fluorescence intensity of yeast-like fungi compared with erythrocytes (two-dimensional scattergram)
OCCOc1ccccc1 [2-phenoxyethanol] | larger fluorescence intensity than the erythrocytes
